Broadly, the EC50 is the concentration giving half of the maximal effect. A lower EC50 goes with an effect from little substance.

The target in the first experiment is T1, RUP3 (Homo sapiens, UniProt Q8TDV5).
T1 construct: expressed in transfected cells; host or cells: melanophores, electroporated
T1 sequence (Q8TDV5 1-335): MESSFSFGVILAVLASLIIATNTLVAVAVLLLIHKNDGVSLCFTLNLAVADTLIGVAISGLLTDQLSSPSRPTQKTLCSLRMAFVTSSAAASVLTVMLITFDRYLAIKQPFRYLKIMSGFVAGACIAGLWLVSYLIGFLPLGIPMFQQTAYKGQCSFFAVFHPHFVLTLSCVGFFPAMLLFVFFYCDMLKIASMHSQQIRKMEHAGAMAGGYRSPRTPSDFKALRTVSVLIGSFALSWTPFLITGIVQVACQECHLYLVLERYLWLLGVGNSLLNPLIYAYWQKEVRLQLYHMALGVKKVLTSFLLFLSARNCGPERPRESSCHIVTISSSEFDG
Briefly: RUP3 dose responses in melanophores. The experiment is classed as cell-based. The conditions noted are these: melanophores transfected with RUP3 expression vector; Table 8. Here is the method: Melanophores are maintained in culture as reported by Potenza, M. N. and Lerner, M. R., in Pigment Cell Research, Vol. 5, 372-378, 1992 and transfected with the RUP3 expression vector (pCMV) using electroporation. Following electroporation, the transfected cells are plated into 96 well plates for the assay. The cells are then allowed to grow for 48 hours in order to both recover from the electroporation procedure and attain maximal receptor expression levels.
On the assay day, the growth medium on the cells is replaced with serum-free buffer containing 10 nM melatonin. The melatonin acts via an endogenous Gi-coupled GPCR in the melanophores to lower intracellular cAMP levels. In response to lowered cAMP levels, the melanophores translocate their pigment to the center of the cell. The net effect of this is a significant decrease in the absorbance reading of the cell monolayer in the well, measured at […].
After a 1-hour incubation in melatonin, the cells become completely pigment-aggregated. At this point a baseline absorbance reading is collected. Serial dilutions of test compounds are then added to the plate and compounds that stimulate RUP3 produce increases in intracellular cAMP levels. In response to these increased cAMP levels, the melanophores translocate their pigment back into the cell periphery. After one hour, stimulated cells are fully pigment-dispersed. The cell monolayer in the dispersed state absorbs much more light in the 600-650 nm range. The measured increase in absorbance compared to the baseline reading allows one to quantitate the degree of receptor stimulation and plot a dose-response curve.
The compounds in the above examples were screened using the melanophore assay.
In turn, `CC(C)(C)C(=O)CN1CCC(Oc2ncnc(Nc3ccc(S(C)(=O)=O)cc3)c2[N+](=O)[O-])CC1` [Compound A11, 1-{4-[6-(4-Methanesulfonyl-phenylamino)-5-nitro-pyrimidin-4-yloxy]-piperidin-1-yl}-3,3-dimethyl-butan-2-one] returned a half-maximal effective concentration (EC50) of 86 nM.
On the same count and under the same terms, next, `CC(C)(C)OC(=O)N1CCC(CCOc2ncnc(Nc3ccc(S(C)(=O)=O)cc3)c2[N+](=O)[O-])CC1` [Compound A14, 4-{2-[6-(4-Methanesulfonyl-phenylamino)-5-nitro-pyrimidin-4-yloxy]-ethyl}-piperidine-1-carboxylic acid tert-butyl ester]: 242 nM; `CS(=O)(=O)c1ccc(Nc2ncnc(OC3CCN(C(=O)c4cccnc4)CC3)c2[N+](=O)[O-])cc1` [Compound A24, {4-[6-(4-Methanesulfonyl-phenylamino)-5-nitro-pyrimidin-4-yloxy]-piperidin-1-yl}-pyridin-3-yl-methanone]: 185 nM; `CS(=O)(=O)c1ccc(Nc2ncnc(OC3CCN(S(C)(=O)=O)CC3)c2[N+](=O)[O-])cc1` [Compound A27, (4-Methanesulfonyl-phenyl)-[6-(1-methanesulfonyl-piperidin-4-yloxy)-5-nitro-pyrimidin-4-yl]-amine]: 76.5 nM.
For the compound `Cc1nc(C)c(S(=O)(=O)N2CCC(Oc3ncnc(Nc4ccc(S(C)(=O)=O)cc4)c3[N+](=O)[O-])CC2)s1` [Compound A32, {6-[1-(2,4-Dimethyl-thiazole-5-sulfonyl)-piperidin-4-yloxy]-5-nitro-pyrimidin-4-yl}-(4-methanesulfonyl-phenyl)-amine], it took 43.5 nM to reach a half-maximal effect (EC50).
Still for that read-out and setting: next, `CC(C)OC(=O)N1CCC(Oc2ncnc(Nc3ccc(S(C)(=O)=O)cc3)c2C#N)CC1` [Compound A39, 4-[5-Cyano-6-(4-methanesulfonyl-phenylamino)-pyrimidin-4-yloxy]-piperidine-1-carboxylic acid isopropyl ester]: 16.9 nM; `Cc1nc(Cl)ccc1Nc1ncnc(OC2CCN(C(=O)OC(C)C)CC2)c1C` [Compound A90, 4-[6-(6-Chloro-2-methyl-pyridin-3-ylamino)-5-methyl-pyrimidin-4-yloxy]-piperidine-1-carboxylic acid isopropyl ester]: 52 nM; `CC(C)(C)C(=O)N1CCC(Nc2ncnc(Nc3ccc(S(C)(=O)=O)cc3)c2[N+](=O)[O-])CC1` [Compound B4, 1-{4-[6-(4-Methanesulfonyl-phenylamino)-5-nitro-pyrimidin-4-ylamino]-piperidin-1-yl}-2,2-dimethyl-propan-1-one]: 300 nM.
`Cc1c(Oc2ccc(CCn3ccnc3)cc2F)ncnc1OC1CCN(C(=O)OC(C)C)CC1` [Compound C168, 4-{6-[2-Fluoro-4-(2-imidazol-1-yl-ethyl)-phenoxy]-5-methyl-pyrimidin-4-yloxy}-piperidine-1-carboxylic acid isopropyl ester] gave an EC50 of 28.3 nM. This EC50 lies about 11-fold lower than the previous one.

The test system of another experiment is Male Sprague Dawley rats. Briefly: Oral glucose tolerance test (oGTT) in rats. The experiment is classed as in vivo, rat. The conditions noted are these: mean of six rats, 10 mg/kg p.o., dextrose 2 g/kg oral challenge. The protocol:
Male Sprague Dawley rats weighing approximately 200 g-250 g were fasted for 15 hours and randomly grouped (n=6) to receive a RUP3 agonist (Compounds A78, A88 or A118) at 3, 10 or 30 mg/kg. Compounds were delivered orally via a gavage needle (p.o., volume 3 ml/kg). At time 0, levels of blood glucose were assessed using a glucometer (Elite XL, Bayer), and rats were administered either vehicle (20% hydroxypropyl-beta-cyclodextrin) or test compound. Thirty minutes after administration of test compound, levels of blood glucose were again assessed, and rats were administered dextrose orally at a dose of 2 g/kg. Blood glucose measurements were then taken 30 min, 60 min, and 120 min after this time.
Consider `CC(C)OC(=O)N1CCC(Oc2ncnc(Nc3ccc(S(C)(=O)=O)cc3F)c2C#N)CC1` [Compound A78, 4-[5-Cyano-6-(2-fluoro-4-methanesulfonyl-phenylamino)-pyrimidin-4-yloxy]-piperidine-1-carboxylic acid isopropyl ester], for which the “% inhibition of glucose excursion” value is recorded as 39%, (10).

The experiment is the same for the next values; noted with them: mean of six rats, 30 mg/kg p.o., dextrose 2 g/kg oral challenge.
`Cc1c(Nc2cc(F)c(C#N)cc2F)ncnc1OC1CCN(C(=O)OC(C)C)CC1` [Compound A88, 4-[6-(4-Cyano-2,5-difluoro-phenylamino)-5-methyl-pyrimidin-4-yloxy]-piperidine-1-carboxylic acid isopropyl ester]: the “% inhibition of glucose excursion” value is recorded as 38%, (30).
For `Cc1c(OC2CCN(C(=O)OC(C)C)CC2)ccnc1Nc1ccc(S(C)(=O)=O)cc1F` [Compound A118, 4-[2-(2-Fluoro-4-methanesulfonyl-phenylamino)-3-methyl-pyridin-4-yloxy]-piperidine-1-carboxylic acid isopropyl ester], the “% inhibition of glucose excursion” value was 43%, (30).

The experiment is the same for the next values; noted with them: rats, p.o., oGTT.
As to `CC(C)OC(=O)N1CCC(Oc2ncnc(Nc3ccc(S(C)(=O)=O)cc3F)c2C#N)CC1` [Compound A78, 4-[5-Cyano-6-(2-fluoro-4-methanesulfonyl-phenylamino)-pyrimidin-4-yloxy]-piperidine-1-carboxylic acid isopropyl ester], the “effect on blood glucose after challenge with glucose” value (“effect on blood glucose” below) was “lowered blood glucose”.
As to `Cc1c(Nc2cc(F)c(C#N)cc2F)ncnc1OC1CCN(C(=O)OC(C)C)CC1` [Compound A88, 4-[6-(4-Cyano-2,5-difluoro-phenylamino)-5-methyl-pyrimidin-4-yloxy]-piperidine-1-carboxylic acid isopropyl ester], the “effect on blood glucose” value is on record as “lowered blood glucose”.
On to `Cc1c(OC2CCN(C(=O)OC(C)C)CC2)ccnc1Nc1ccc(S(C)(=O)=O)cc1F` [Compound A118, 4-[2-(2-Fluoro-4-methanesulfonyl-phenylamino)-3-methyl-pyridin-4-yloxy]-piperidine-1-carboxylic acid isopropyl ester], for which the “effect on blood glucose” value is given as “lowered blood glucose”.

In a further experiment the target is T2, RUP3 (Mesocricetus auratus, UniProt A0A1U8CD06).
T2 construct: host or cells: HIT-T15 hamster insulin-producing cells
T2 sequence (A0A1U8CD06 1-334): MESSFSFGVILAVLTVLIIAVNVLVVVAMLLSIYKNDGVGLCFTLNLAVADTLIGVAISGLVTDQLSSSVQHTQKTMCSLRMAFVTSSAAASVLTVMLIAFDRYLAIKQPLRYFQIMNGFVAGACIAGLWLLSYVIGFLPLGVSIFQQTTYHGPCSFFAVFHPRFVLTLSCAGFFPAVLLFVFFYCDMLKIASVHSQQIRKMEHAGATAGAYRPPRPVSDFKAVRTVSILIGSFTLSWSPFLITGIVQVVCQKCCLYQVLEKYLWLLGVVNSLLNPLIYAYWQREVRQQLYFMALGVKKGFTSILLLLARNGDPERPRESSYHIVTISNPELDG
Briefly: Stimulation of cAMP in HIT-T15 cells (cAMP Flashplate Assay). It counts as cell-based, hamster. The conditions noted are these: Table 6. Here is the method:
HIT-T15 (ATCC CRL#1777) is an immortalized hamster insulin-producing cell line. These cells express RUP3 and therefore can be used to assess the ability of RUP3 ligands to stimulate or inhibit cAMP accumulation via its endogenously expressed receptor. In this assay, cells are grown to 80% confluence and then distributed into a 96-well Flashplate (50,000 cells/well) for detection of cAMP via a “cAMP Flashplate Assay” (NEN, Cat #SMP004). Briefly, cells are placed into anti-cAMP antibody-coated wells that contain either vehicle, the test ligand(s) at a concentration of interest, or 1 uM forskolin. The latter is a direct activator of adenylyl cyclase and serves as a positive control for stimulation of cAMP in HIT-T15 cells. All conditions are tested in triplicate. After a 1 hour incubation to allow for stimulation of cAMP, a Detection Mix containing ^125I-cAMP is added to each well and the plate is allowed to incubate for another 1 hour. The wells are then aspirated to remove unbound ^125I-cAMP. Bound ^125I-cAMP is detected using a Wallac Microbeta Counter. The amount of cAMP in each sample is determined by comparison to a standard curve, obtained by placing known concentrations of cAMP in some wells on the plate.
A number of the compounds disclosed herein were screened using the above described assay.
`CC(C)(C)OC(=O)N1CCC(Oc2ncnc(Nc3ccc(S(C)(=O)=O)cc3)c2[N+](=O)[O-])CC1` [Compound A1, 4-[6-(4-Methanesulfonyl-phenylamino)-5-nitro-pyrimidin-4-yloxy]-piperidine-1-carboxylic acid tert-butyl ester] came in with an EC50 of 20 nM.
In turn, `CC(C)(C)OC(=O)N1CCC(Oc2ncnc(Nc3ccc(S(C)(=O)=O)cc3F)c2[N+](=O)[O-])CC1` [Compound A34, 4-[6-(2-Fluoro-4-methanesulfonyl-phenylamino)-5-nitro-pyrimidin-4-yloxy]-piperidine-1-carboxylic acid tert-butyl ester] yielded a concentration for a half-maximal effect (EC50) of 27 nM.
With `CC(C)(C)OC(=O)N1CCC(Oc2ncnc(Nc3ccc(S(C)(=O)=O)cc3)c2C#N)CC1` [Compound A35, 4-[5-Cyano-6-(4-methanesulfonyl-phenylamino)-pyrimidin-4-yloxy]-piperidine-1-carboxylic acid tert-butyl ester], a half-maximal response (EC50) required 59 nM.

These data come from patent publication US8546429B2, “1,2,3-trisubstituted aryl and heteroaryl derivatives as modulators of metabolism and the prophylaxis and treatment of disorders related thereto” (Arena Pharmaceuticals, Inc., priority 2003, dated 2013).
